Values quoted from earlier work, collected in patent publication US20180009934A1, “HIGH […] […] RESINS” (priority 2016, published 2018).

Details: monomer property, Table 1; species and route not given

Row | SMILES | Toxicity LD50
1 | C=Cc1ccc(C(C)(C)C)cc1 [Monomer 1, 4-tert butyl styrene] | >2000 mg/kg
2 | C=Cc1ccccc1 [STYRENE, styrene] | >2000 mg/kg
